Assay results from PMC7764916, “The Cholinesterase Inhibitory Properties of Stephaniae Tetrandrae Radix” (Molecules, 2020).
Where two headings read alike, the source gives them in different places.

What was measured:
[1] = target: T1, BChE (Mus musculus, UniProt Q03311); experiment: BChE activity assay (Ellman method), mouse serum; format: biochemical; details: for IC50: alkaloids, Figure 3B; for BChE inhibitory activity (in words): Figure 3
T1 construct: the brain lysate and iso-OMPA were replaced with diluted serum solution and 0.1 μM BW284c51; from tissue; host or cells: mouse serum (diluted 1:50)
Experimental: Mouse serum (1: 50 v/v, diluted with precooled low-salt lysis buffer) was prepared for the BChE activity assay. The BChE assay medium consisted of the same composition as the AChE assay medium, except that the brain lysate and iso-OMPA were replaced with diluted serum solution and 0.1 μM BW284c51. The mixture of diluted serum, Na2HPO4 buffer, and BW284c51 solution was incubated at 37 °C for 10 min, and then the solutions of DNTB and ATCh were added. […] The concentration of DMSO in the reaction system of AChE/BChE assay was controlled at 0.5%. […] The AChE/BChE inhibitory activity of drugs was calculated as a percentage of the control absorbance value, AChE/BChE inhibition (%) = (1 − absorbance with inhibitor/absorbance without inhibitor) × 100%. […] The protein concentrations were measured using the Bio-Rad Protein Assay kit (Hercules, CA, USA).

[2] = target: T2, AChE (Mus musculus, UniProt P21836); experiment: Enzyme kinetic analysis of AChE inhibition (Lineweaver–Burk plots); format: biochemical; details: for type of AChE inhibition: Lineweaver–Burk plots; for Ki: estimated from Lineweaver–Burk plots, ATCh 0.040–0.625 mM
T2 construct: The AChE assay medium consisted of brain lysate (5 mg/mL) with testing drugs; from tissue; host or cells: mouse brain (Triton X-100 low-salt lysate)
T2 sequence (P21836 32-614): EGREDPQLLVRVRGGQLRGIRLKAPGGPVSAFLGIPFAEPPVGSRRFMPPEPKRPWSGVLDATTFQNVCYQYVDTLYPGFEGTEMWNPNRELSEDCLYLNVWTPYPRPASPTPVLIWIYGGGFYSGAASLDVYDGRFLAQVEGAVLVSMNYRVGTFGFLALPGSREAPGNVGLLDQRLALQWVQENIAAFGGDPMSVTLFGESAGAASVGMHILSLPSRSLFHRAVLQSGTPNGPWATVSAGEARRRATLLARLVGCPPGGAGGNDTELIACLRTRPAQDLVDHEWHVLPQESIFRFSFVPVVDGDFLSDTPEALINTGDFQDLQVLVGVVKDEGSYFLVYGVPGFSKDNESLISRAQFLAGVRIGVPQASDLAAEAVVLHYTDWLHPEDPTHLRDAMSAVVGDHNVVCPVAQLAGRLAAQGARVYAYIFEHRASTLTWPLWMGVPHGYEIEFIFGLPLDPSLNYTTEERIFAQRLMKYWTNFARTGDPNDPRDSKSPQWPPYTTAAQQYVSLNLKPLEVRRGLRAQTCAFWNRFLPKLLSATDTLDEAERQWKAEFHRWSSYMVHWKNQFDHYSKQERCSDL
Experimental: Figure 4 The enzyme kinetic analysis of AChE inhibition by fangchinoline and cyclanoline. Different doses of fangchinoline (0.5–5 μM) and cyclanoline (30–120 μM) were added to the AChE reaction system and preincubated at 37 °C with the brain lysate, followed by the addition of a range of doses of ATCh (0.040–0.625 mM). The inhibition constants Ki were estimated from the plots of the slope versus the concentration of tested drugs. Donepezil (25 nM) served as a positive control. The data are expressed as the mean ± SEM (standard error of mean) of three […] assays, each with triplicate samples.
The Michaelis constant (Km), maximum velocity (Vmax), and inhibitory constant (Ki) were used to evaluate the kinetics of fangchinoline and cyclanoline. Lineweaver–Burk plots were then plotted using initial velocities, from which the Km and Vmax values were calculated (the absolute values of horizontal and vertical intercepts were 1/Km and 1/Vmax, respectively). The slopes of reciprocal plots were then plotted against the doses of fangchinoline and cyclanoline, and Ki values were determined as the absolute value of the x-axis intercept. Donepezil was used as a positive control. All experiments were performed in triplicate.

[3] = target: T2, AChE; experiment: biochemical
Experimental: The extracts and alkaloids of STR were tested for cholinesterase activity using a 96-well microtiter plate (Corning, NY, USA) with a final volume of 200 μL, according to the Ellman method. […] The mixture of brain lysate, Na2HPO4 buffer, and iso-OMPA solution was incubated at 37 °C for 10 min, and then the solutions of DNTB and ATCh were added.
Mouse serum (1: 50 v/v, diluted with precooled low-salt lysis buffer) was prepared for the BChE activity assay. The BChE assay medium consisted of the same composition as the AChE assay medium, except that the brain lysate and iso-OMPA were replaced with diluted serum solution and 0.1 μM BW284c51. The mixture of diluted serum, Na2HPO4 buffer, and BW284c51 solution was incubated at 37 °C for 10 min, and then the solutions of DNTB and ATCh were added. […] The concentration of DMSO in the reaction system of AChE/BChE assay was controlled at 0.5%. […] The protein concentrations were measured using the Bio-Rad Protein Assay kit (Hercules, CA, USA).

[4] = alkaloids, Figure 3B, read-out: AChE IC50

T1 sequence (Q03311 30-603): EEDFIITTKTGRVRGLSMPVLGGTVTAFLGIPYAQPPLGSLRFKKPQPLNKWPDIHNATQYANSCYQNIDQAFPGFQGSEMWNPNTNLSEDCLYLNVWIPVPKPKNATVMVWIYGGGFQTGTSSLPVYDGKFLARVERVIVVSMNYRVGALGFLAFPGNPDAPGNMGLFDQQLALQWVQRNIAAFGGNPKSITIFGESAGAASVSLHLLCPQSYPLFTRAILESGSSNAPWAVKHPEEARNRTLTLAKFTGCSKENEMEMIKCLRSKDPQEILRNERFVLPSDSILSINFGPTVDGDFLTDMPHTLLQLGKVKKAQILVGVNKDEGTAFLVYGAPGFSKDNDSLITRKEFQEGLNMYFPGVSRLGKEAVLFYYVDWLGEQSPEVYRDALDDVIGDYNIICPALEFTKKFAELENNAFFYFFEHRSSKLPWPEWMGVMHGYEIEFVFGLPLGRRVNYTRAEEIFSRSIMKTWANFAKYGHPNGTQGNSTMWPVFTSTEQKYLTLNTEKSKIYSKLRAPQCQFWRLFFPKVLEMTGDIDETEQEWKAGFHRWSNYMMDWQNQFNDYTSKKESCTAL

Row | Structure (SMILES) | IC50 [1] | type of AChE inhibition [2] | Ki [2] | IC50 [3, 4] | BChE inhibitory activity (in words) [1] | IC50 ([3]; Figure 5A, ATCh 0.625 mM, read-out: AChE IC50 (single drug, synergy experiment)) | AChE inhibitory activity (in words) ([3]; Figure 3)
1 | COc1ccc2c3c1O[C@H]1C[C@@H](O)C=C[C@@]31CCN(C)C2 [Galanthamine, galanthamine, reference compound] | 49.8 ± 2.5 µM | – | – | – | – | – | –
2 | COc1cc2c(cc1O)[C@@H]1Cc3ccc(OC)c(O)c3C[N@+]1(C)CC2 [cyclanoline] | 247 ± 5.46 µM | noncompetitive | 72.3 µM | 106 ± 2.29 µM | – | – | –
3 | COc1ccc2cc1Oc1ccc(cc1)C[C@H]1c3cc(c(OC)cc3CCN1C)Oc1c(O)c(OC)cc3c1[C@H](C2)N(C)CC3 [fangchinoline] | – | noncompetitive | 1.79 µM | 2.58 ± 0.28 µM | no inhibitory activity on BChE | 2.12 ± 0.16 µM | –
4 | COc1ccc2cc1Oc1ccc(cc1)C[C@H]1c3cc(c(OC)cc3CCN1C)Oc1c(OC)c(OC)cc3c1[C@H](C2)N(C)CC3 [tetrandrine] | – | – | – | – | no or little inhibitory activity on BChE | – | no inhibitory activity on AChE at the maximal dissolvable concentration
